IC50 data for 12 compounds are collected here from patent publication US11091479B2, “Triazolopyridin-3-ones or their salts and pharmaceutical compositions comprising the same” (YUHAN CORPORATION, priority 2018, dated 2021).

A word on the IC50: it is the concentration needed to halve the response being measured.

Where a name gives a salt, the structure may show the parent alone.

Common to all, as to type: biochemical
Assay [1] addresses T1, recombinant human DAO (diamine oxidase) (Homo sapiens, UniProt P19801).
T1 construct: purchased R&D systems
T1 sequence (P19801 20-751): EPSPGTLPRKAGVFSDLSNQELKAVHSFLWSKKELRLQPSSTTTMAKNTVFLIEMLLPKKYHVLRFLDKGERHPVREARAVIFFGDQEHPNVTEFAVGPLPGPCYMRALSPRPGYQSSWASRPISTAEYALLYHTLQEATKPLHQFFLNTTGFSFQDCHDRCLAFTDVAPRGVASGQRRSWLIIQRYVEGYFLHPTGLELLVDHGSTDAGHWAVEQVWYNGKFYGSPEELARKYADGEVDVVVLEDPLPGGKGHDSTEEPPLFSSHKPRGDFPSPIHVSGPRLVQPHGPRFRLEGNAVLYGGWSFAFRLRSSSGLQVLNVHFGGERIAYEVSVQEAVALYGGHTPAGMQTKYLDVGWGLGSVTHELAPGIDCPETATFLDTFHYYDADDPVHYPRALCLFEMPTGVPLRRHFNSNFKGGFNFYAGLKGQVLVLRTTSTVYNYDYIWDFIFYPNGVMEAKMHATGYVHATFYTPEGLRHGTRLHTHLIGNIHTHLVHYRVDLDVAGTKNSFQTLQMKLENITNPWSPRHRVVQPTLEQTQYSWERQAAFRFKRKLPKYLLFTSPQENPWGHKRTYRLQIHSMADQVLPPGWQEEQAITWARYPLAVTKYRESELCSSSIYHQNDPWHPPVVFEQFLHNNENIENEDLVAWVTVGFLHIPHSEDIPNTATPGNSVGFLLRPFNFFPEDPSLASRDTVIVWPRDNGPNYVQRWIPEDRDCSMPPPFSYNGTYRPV
Description: Activity on recombinant human DAO, method similar to VAP-1 assay, 1 mM putrescine substrate. To be noted: read-out: Inhibitory Activity (IC50, nM) DAO. A digest of the protocol:
(§1)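 Amplex Red/HRP-coupled H2O2 fluorescence assay run as for VAP-1: enzyme in 50 mM sodium phosphate pH 7.4 preincubated with compound 30 min at 37 °C, then substrate (putrescine for DAO, benzylamine for MAO-B, tyramine for MAO-A) added with 200 uM Amplex Red, 1 U/mL HRP. Signal rate over 1-2 h; IC50 from 4-parameter logistic fit.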

For the next assay, the target named is T2, recombinant human VAP-1 (Homo sapiens, UniProt Q16853).
T2 construct: purchased R&D systems
T2 sequence (Q16853 1-763): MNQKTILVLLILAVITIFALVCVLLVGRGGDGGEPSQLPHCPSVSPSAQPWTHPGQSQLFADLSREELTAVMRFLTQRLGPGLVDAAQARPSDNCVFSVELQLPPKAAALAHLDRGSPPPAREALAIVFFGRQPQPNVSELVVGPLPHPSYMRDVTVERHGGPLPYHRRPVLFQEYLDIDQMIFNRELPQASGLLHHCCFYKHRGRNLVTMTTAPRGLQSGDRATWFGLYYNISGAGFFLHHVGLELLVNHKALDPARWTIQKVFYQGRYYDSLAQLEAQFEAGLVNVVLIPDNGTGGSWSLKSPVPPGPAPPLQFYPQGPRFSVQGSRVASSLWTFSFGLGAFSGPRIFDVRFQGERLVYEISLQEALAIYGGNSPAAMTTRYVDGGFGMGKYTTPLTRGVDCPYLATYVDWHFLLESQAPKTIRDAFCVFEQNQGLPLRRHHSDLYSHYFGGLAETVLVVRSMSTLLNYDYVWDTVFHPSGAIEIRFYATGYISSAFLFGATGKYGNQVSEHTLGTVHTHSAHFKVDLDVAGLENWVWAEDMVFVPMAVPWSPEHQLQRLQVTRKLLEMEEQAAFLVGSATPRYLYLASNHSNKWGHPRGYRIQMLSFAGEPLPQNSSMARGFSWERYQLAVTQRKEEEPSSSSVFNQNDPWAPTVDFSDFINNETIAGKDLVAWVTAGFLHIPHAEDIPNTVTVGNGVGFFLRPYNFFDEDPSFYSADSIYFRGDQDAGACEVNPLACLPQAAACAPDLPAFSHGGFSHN
The assay can be described thus: Activity on recombinant human VAP-1, HRP-coupled Amplex Red hydrogen peroxide assay, benzylamine substrate. To be noted: 30 min incubation at 37° C., 1 mM benzylamine, read-out: Inhibitory Activity (IC50, nM) human VAP-1. A digest of the protocol:
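Recombinant human VAP-1 in 50 mM sodium phosphate pH 7.4 preincubated with compound for 30 min at 37 °C, then 1 mM benzylamine, 200 uM Amplex Red and 1 U/mL HRP added. Resorufin fluorescence (ex 544/em 590 nm) followed over 1-2 h; % signal-rate decrease vs DMSO control, 8-point 4-parameter fit for IC50.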

Assay [2] deals with T3, recombinant human MAO-A (monoamine oxidase-A) (Homo sapiens, UniProt P21397).
T3 construct: purchased Sigma-Aldrich
T3 sequence (P21397 1-527): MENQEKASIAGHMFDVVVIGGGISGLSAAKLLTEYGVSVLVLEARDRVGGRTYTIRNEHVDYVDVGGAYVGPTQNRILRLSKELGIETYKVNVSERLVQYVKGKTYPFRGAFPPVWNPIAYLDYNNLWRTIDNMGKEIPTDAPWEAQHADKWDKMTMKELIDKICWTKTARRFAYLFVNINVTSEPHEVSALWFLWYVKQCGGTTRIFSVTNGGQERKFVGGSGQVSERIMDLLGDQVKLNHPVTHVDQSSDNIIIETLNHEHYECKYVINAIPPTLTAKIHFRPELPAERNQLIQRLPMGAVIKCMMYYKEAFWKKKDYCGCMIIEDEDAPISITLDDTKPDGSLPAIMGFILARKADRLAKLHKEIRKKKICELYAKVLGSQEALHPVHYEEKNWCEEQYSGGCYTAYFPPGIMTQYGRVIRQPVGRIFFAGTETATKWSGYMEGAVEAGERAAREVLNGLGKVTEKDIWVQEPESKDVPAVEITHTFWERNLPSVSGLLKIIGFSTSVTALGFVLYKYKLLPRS
The assay can be described thus: Activity on recombinant human MAO-A, method similar to VAP-1 assay, 0.5 mM tyramine substrate. To be noted: read-out: Inhibitory Activity (IC50, nM) MAO-A. The procedure, abridged: as §1

In assay [3] the target is T4, recombinant human MAO-B (monoamine oxidase-B) (Homo sapiens, UniProt P27338).
T4 construct: purchased Sigma-Aldrich
T4 sequence (P27338 1-520): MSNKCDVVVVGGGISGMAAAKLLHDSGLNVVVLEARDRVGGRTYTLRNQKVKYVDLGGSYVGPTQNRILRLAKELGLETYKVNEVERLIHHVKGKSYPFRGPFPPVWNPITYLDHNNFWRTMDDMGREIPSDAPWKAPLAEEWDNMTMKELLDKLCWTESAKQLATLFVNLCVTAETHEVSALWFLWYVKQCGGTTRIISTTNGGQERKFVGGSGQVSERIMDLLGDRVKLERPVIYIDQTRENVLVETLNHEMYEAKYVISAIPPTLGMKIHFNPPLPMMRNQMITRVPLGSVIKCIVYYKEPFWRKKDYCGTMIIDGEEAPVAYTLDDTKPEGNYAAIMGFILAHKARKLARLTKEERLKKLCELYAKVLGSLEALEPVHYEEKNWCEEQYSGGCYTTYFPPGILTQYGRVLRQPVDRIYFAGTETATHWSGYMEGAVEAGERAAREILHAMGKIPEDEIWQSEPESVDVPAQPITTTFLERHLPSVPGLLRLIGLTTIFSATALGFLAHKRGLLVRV
Description: Activity on recombinant human MAO-B, method similar to VAP-1 assay, 1 mM benzylamine substrate. To be noted: read-out: Inhibitory Activity (IC50, nM) MAO-B. The procedure, abridged: as §1

With `NCC(Cn1nc2cc(C#Cc3ccc(N4CCOCC4)nc3)ccn2c1=O)=C(F)F` [Example 58, 2-[2-(aminomethyl)-3,3-difluoro-allyl]-7-[2-(6-morpholino-3-pyridyl)ethynyl]-[1,2,4]triazolo[4,3-a]pyridin-3-one trifluoroacetate], the half-inhibitory concentration (IC50) in assay [1] was 34 nM; on recombinant human VAP-1, 0.3 nM; in assay [2], greater than 100000 nM; in assay [3], 5300 nM.

For `NCC(Cn1nc2ccc(Br)cn2c1=O)=C(F)F` [Example 46, 2-[2-(aminomethyl)-3,3-difluoro-allyl]-6-bromo-[1,2,4]triazolo[4,3-a]pyridin-3-one trifluoroacetate], the IC50 is 26000 nM in assay [1], 36 nM on recombinant human VAP-1, greater than 100000 nM in assay [2] and greater than 100000 nM in assay [3].

Consider `NC/C(=C\F)Cn1nc2cc(-c3ccc4cn[nH]c4c3)ccn2c1=O` [Example 37, 2-[(2E)-2-(aminomethyl)-3-fluoroprop-2-en-1-yl]-7-(1H-indazol-6-yl)[1,2,4]triazolo[4,a]pyridin-3(2H)-one hydrochloride], for which the IC50 in assay [1] came to 0.3 nM; on recombinant human VAP-1, 0.1 nM; in assay [2], 26000 nM; in assay [3], 190 nM.

As for `NC/C(=C\F)Cn1nc2cc(-c3ccc4nonc4c3)ccn2c1=O` [Example 38, 2-[(2E)-2-(aminomethyl)-3-fluoroprop-2-en-1-yl]-7-(2,1,3-benzoxadiazol-5-yl)[1,2,4]triazolo[4,3-a]pyridin-3(2H)-one hydrochloride], the IC50 in assay [1] was 0.4 nM; at recombinant human VAP-1 it was 0.2 nM; in assay [2], 3500 nM; in assay [3], less than 10 nM.

As for `CS(=O)(=O)c1ccc(-c2ccc3nn(C/C(=C/F)CN)c(=O)n3c2)cc1` [Example 3, 2-[(2E)-2-(aminomethyl)-3-fluoroprop-2-en-1-yl]-6-[4-(methylsulfonyl)phenyl][1,2,4]triazolo[4,3-a]pyridin-3(2H)-one trifluoroacetate], the half-maximal inhibitory concentration (IC50) was less than 100 nM in assay [1], 3.6 nM on recombinant human VAP-1, greater than 100000 nM in assay [2] and 231 nM in assay [3].

In the case of `NC/C(=C\F)Cn1nc2cc(-c3ccc(-c4noc(C5CC5)n4)cc3)ccn2c1=O` [Example 29, 2-[(2E)-2-(aminomethyl)-3-fluoroprop-2-en-1-yl]-7-[4-(5-cyclopropyl-1,2,4-oxadiazol-3-yl)phenyl][1,2,4]triazolo[4,3-a]pyridin-3(2H)-one hydrochloride], the IC50 in assay [1] stood at 4 nM; on recombinant human VAP-1, 0.4 nM; in assay [2], 44000 nM; in assay [3], 380 nM.

For the compound `CN(C)c1ccc(-c2ccn3c(=O)n(C/C(=C/F)CN)nc3c2)cn1` [Example 32, 2-[(2E)-2-(aminomethyl)-3-fluoroprop-2-en-1-yl]-7-[6-(dimethylamino)pyridin-3-yl][1,2,4]triazolo[4,3-a]pyridin-3(2H)-one hydrochloride], the IC50 is 24 nM in assay [1], 0.4 nM at recombinant human VAP-1, greater than 100000 nM in assay [2] and 19 nM in assay [3].

Turning to `NC/C(=C\F)Cn1nc2cc(-c3ccc4c(c3)NC(=O)OC4)ccn2c1=O` [Example 41, 7-[2-[(2E)-2-(aminomethyl)-3-fluoroprop-2-en-1-yl]-3-oxo-2,3-dihydro[1,2,4]triazolo[4,3-a]pyridin-7-yl]-1,4-dihydro-2H-3,1-benzoxazin-2-one hydrochloride], the IC50 in assay [1] was 1.3 nM; on recombinant human VAP-1 it was 0.3 nM; in assay [2], 6800 nM; in assay [3], 730 nM.

With `COc1ccc(-c2ccn3c(=O)n(C/C(=C/F)CN)nc3c2)cn1` [Example 31, 2-[(2E)-2-(aminomethyl)-3-fluoroprop-2-en-1-yl]-7-(6-methoxypyridin-3-yl)[1,2,4]triazolo[4,3-a]pyridin-3(2H)-one hydrochloride], the IC50 in assay [1] is 5 nM; at recombinant human VAP-1, 0.3 nM; in assay [2], greater than 100000 nM; in assay [3] it was 61 nM.

As to `NC/C(=C\F)Cn1nc2cc(-c3ccc4c(c3)OCO4)ccn2c1=O` [Example 36, 2-[(2E)-2-(aminomethyl)-3-fluoroprop-2-en-1-yl]-7-(1,3-benzodioxol-5-yl)[1,2,4]triazolo[4,3-a]pyridin-3(2H)-one hydrochloride], the IC50 in assay [1] worked out at 20 nM; on recombinant human VAP-1, 0.3 nM; in assay [2], 66000 nM; in assay [3], 3.8 nM.

Consider `Cc1cc(-c2ccn3c(=O)n(C/C(=C/F)CN)nc3c2)cc2c1NC(=O)CC2` [Example 43, 6-[2-[(2E)-2-(aminomethyl)-3-fluoroprop-2-en-1-yl]-3-oxo-2,3-dihydro[1,2,4]triazolo[4,3-a]pyridin-7-yl]-8-methyl-3,4-dihydroquinolin-2(1H)-one hydrochloride], for which the IC50 was 9.6 nM in assay [1], 0.5 nM at recombinant human VAP-1, greater than 100000 nM in assay [2] and 140 nM in assay [3].

On to `NC/C(=C\F)Cn1nc2ccc(-c3ccc(-c4nc[nH]n4)cc3)cn2c1=O` [Example 5, 2-[(2E)-2-(aminomethyl)-3-fluoroprop-2-en-1-yl]-6-[4-(1H-1,2,4-triazol-3-yl)phenyl][1,2,4]triazolo[4,3-a]pyridin-3(2H)-one trifluoroacetate], for which the IC50 in assay [1] is less than 100 nM; on recombinant human VAP-1, 2 nM; in assay [2], greater than 100000 nM; in assay [3] it was 1450 nM.
